The values that follow come from paper PMC4585938, “Ursolic acid exerts anti-cancer activity by suppressing vaccinia-related kinase 1-mediated damage repair in lung cancer cells” (Scientific Reports, 2015).

Molecules are shown by their SMILES.

In the assay the target is vaccinia-related kinase 1 (VRK1) (Homo sapiens, UniProt Q99986). The assay can be described thus: biochemical. The assay is classed as binding.
vaccinia-related kinase 1 (VRK1), sequence (Q99986 whole entry): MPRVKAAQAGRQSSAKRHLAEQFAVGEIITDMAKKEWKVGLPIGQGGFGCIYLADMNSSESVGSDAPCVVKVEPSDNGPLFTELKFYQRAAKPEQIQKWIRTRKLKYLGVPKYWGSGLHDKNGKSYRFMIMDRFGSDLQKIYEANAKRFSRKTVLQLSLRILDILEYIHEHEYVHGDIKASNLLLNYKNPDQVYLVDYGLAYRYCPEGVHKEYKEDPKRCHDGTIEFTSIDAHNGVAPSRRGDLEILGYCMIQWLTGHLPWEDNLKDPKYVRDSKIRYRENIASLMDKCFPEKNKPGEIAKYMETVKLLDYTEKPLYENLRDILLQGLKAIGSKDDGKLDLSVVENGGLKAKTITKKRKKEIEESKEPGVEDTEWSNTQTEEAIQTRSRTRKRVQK

`C[C@H]1[C@H](C)CC[C@]2(C(=O)O)CC[C@]3(C)C(=CC[C@@H]4[C@@]5(C)CC[C@H](O)C(C)(C)[C@@H]5CC[C@]43C)[C@H]12` [UA, (1S,2R,4aS,6aR,6aS,6bR,8aR,10S,12aR,14bS)-10-hydroxy-1,2,6a,6b,9,9,12a-heptamethyl-2,3,4,5,6,6a,7,8,8a,10,11,12,13,14b-tetradecahydro-1H-picene-4a-carboxylic acid] showed a Kd of 731 nM.
